This is an account of results in patent US20090022686A1, “PHARMACEUTICAL COMPOSITIONS FOR THE TREATMENT OF SYSTEMIC INFLAMMATORY RESPONSE SYNDROME” (Boehringer Ingelheim Pharma GmbH & Co. KG, priority 2002, published 2009).

Assay [1] concerns Systemic Inflammatory Response Syndrome (SIRS): Intravenous Lipopolysaccharide Stimulation. Kind of assay: Animal model for SIRS: intravenous LPS bolus stimulation in rats (Method 1). The class given is in vivo. As to conditions: for IL-6 / TAT: rat blood, ELISA. Here is the method:
Animal Model for Systemic Inflammatory Response Syndrome (SIRS): Intravenous Lipopolysaccharide Stimulation (Modified According to Isobe et al. Circulation 2001; 104: 1171-1175)
Rats (male, approx. 300 g CrlGlxBrlHan:Wi) were anaesthetised with pentobarbital (60 mg/kg i.p.). To maintain the anaesthetic a pentobarbital drip was set up (22.5 mg/kg/h i.p.). The carotid artery was cannulated for taking blood samples, the left jugular vein was cannulated for administration of the substance and the right jugular vein was cannulated for administering the LPS. The administration of (R)-2-[…]-5-[1-(carboxymethylamino)-1-(pyrrolidinocarbonyl)-ethyl]-benzimidazole (0.1 mg/kg/h) was started at time t=−60 min as a continuous drip and maintained until the end of the experiment. One hour after the start of the infusion of the substance, a single bolus of LPS was administered (lipopolysaccharide of E. coli serotype 0127:B8 Sigma L-3129 5 mg/kg i.v. bolus) at time t=0 min. In order to determine the coagulation and inflammation parameters, blood was taken via the arterial cannulae at times a) before the infusion of placebo or (R)-2-(4-amidinophenylaminomethyl)-1-methyl-5-[1-(carboxymethylamino)-1-(pyrrolidinocarbonyl)-ethyl]-benzimidazole (−60 minutes), b) before administration of the LPS bolus (0 minutes) and c) 240 minutes after the administration of LPS. From the blood samples the TAT complex (thrombin-antithrombin) and interleukin-6 (IL-6) were determined by ELISA as parameters of a systemic inflammatory reaction.
(In an ELISA, binding on a coated surface is turned into a signal by an enzyme label.)

Assay [2] shares this test system. Kind of assay: Animal model for SIRS: continuous intravenous LPS infusion in rats (Method 2). The class given is in vivo. As to the method: Animal Model for Systemic Inflammatory Response Syndrome (SIRS): Intravenous Lipopolysaccharide Stimulation (Modified According to Aoki et al. Drug Res. 50: 809; 2000 and Yamazaki et al. Blood Coag. Fibrinol. 10: 321; 1999)
Rats (male, approx. 300 g CrlGlxBrlHan:Wi) were anaesthetised with pentobarbital (60 mg/kg i.p.). To maintain the anaesthetic a pentobarbital drip was set up (22.5 mg/kg/h i.p.). The left jugular vein was cannulated for administration of the substance and the right jugular vein was cannulated for administering the LPS. LPS was given as a continuous infusion for 4 hours (lipopolysaccharide of E. coli serotype 0127:B8 Sigma L-3129 7.5 mg/kg/h). (R)-2-(4-amidinophenylaminomethyl)-1-methyl-5-[1-(carboxymethylamino)-1-(pyrrolidinocarbonyl)-ethyl]-benzimidazole (0.1 mg/kg/h) was administered as a continuous infusion (100 μg/kg/h) one hour after the start of the LPS infusion with a total duration of 3 hours. In order to determine the inflammation parameters, blood was taken from the abdominal artery after a total test period of four hours. From the blood samples the TAT complex (thrombin-antithrombin), interleukin-1β (IL-1β), interleukin-6 (IL-6) and the tumour necrosis factor alpha (TNF-alpha) were determined by ELISA as parameters of a systemic inflammatory reaction. Alanine-aminotransferase (ALT) and creatinin served as enzyme parameters for organ damage to the liver and kidneys.

Where [3] appears, read: 0 min (before LPS bolus, 1 h after start of infusion), active substance 100 μg/kg/h.
Where [4] appears, read: +240 min after LPS 5 mg/kg i.v. bolus, active substance 100 μg/kg/h.
Where [5] appears, read: result in words, LPS bolus, 0.1 mg/kg/h.
The mark [6] stands for this setting: −60 min (before start of infusion), LPS + active substance 100 μg/kg/h continuous drip.
Setting [7] is: LPS 7.5 mg/kg/h × 4 h + 100 μg/kg/h infusion from 1 h after LPS start for 3 h, blood after 4 h, mean ± standard deviation.
Where [8] appears, read: result in words, continuous LPS infusion, 0.1 mg/kg/h.

Marks after values point to notes of the source that are not given here.

For `Cn1c(CNc2ccc(C(=N)N)cc2)nc2cc([C@@](C)(NCC(=O)O)C(=O)N3CCCC3)ccc21` [BIBT 986, (R)-2-(4-amidinophenylaminomethyl)-1-methyl-5-[1-(carboxymethylamino)-1-(pyrrolidinocarbonyl)-ethyl]-benzimidazole], in assay [1] (setting [3]), the IL-6 stood at 0.143 ± 0.083 ng/mL and the TAT is 2.21 ± 0.79 ng/mL. In addition, in assay [1] (setting [4]), the IL-6 is reported as 43.454 +/− 2.975 * ng/ml and the TAT is reported as 6.52 +/− 1.33 * ng/ml. Also, in assay [1] (setting [5]), the “plasma levels of IL-6 versus untreated LPS animals” value is given as “significant (p<0.02) reduction”; the “plasma levels of the TAT complex versus untreated LPS animals” value is “significantly lower than in the untreated LPS animals (p<0.02) and were within the control range”. Further, in assay [1] (setting [6]), the IL-6 came to 0.139 ± 0.086 ng/mL and the TAT was 2.33 ± 0.89 ng/mL. In addition, in assay [2] (setting [7]), the IL-1β turned out to be 4036 ± 1000 pg/mL, the IL-6 stood at 89579 ± 10069 pg/mL and the TNF-alpha was 1003 ± 292 pg/mL. For the same molecule, the creatinin in assay [2] (kidney damage marker, LPS 7.5 mg/kg/h × 4 h + 100 μg/kg/h infusion for 3 h, blood after 4 h, mean ± standard deviation) stood at 40.1 ± 1.8 µmol/L. Further, the ALT in assay [2] (liver damage marker, LPS 7.5 mg/kg/h × 4 h + 100 μg/kg/h infusion for 3 h, blood after 4 h, mean ± standard deviation) came out at 44.2 ± 7.1 U/ml. In assay [2] (setting [8]), the “ALT versus untreated control animals” value is “not significantly different from untreated control animals”, the “TAT complex versus LPS-treated animals” value was “significant lowering”, the “creatinin versus untreated control animals” value was “not significantly different from untreated control animals” and the “plasma levels of IL-1β versus LPS-treated animals” value is recorded as “significant (p<0.02) lowering”. Moreover, in assay [2] (setting [8]), the “plasma levels of IL-6 versus LPS-treated animals” value is on record as “significant (p<0.02) lowering” and the “plasma levels of TNF alpha versus LPS-treated animals” value was “significant (p<0.02) lowering”.
